From patent US20200121605A1, “METHODS AND COMPOSITIONS FOR LOCALIZED INTRADUCTAL DRUG DELIVERY TO THE BREAST AND REGIONAL LYMPH NODES” (South Dakota Board of Regents, priority 2018, published 2020)
One block for each compound: values may come before it.

What was measured:
[1] = Intraductal retention of Cy5.5 labelled PLGA formulations, whole body imaging; assay type: in vivo, Female SD rats
Protocol: Female SD rats were anesthetized using isoflurane and the hair around the nipple region was removed using hair removing cream. The keratin plug from the inguinal mammary gland (5th or 6th nipple from the head) was removed gently holding the nipple using tweezers and wiping with 70% alcohol.
For microspheres and nanoparticles, around 0.5 to 1.5 mg particles was dispersed in PBS containing 0.5% w/v Tween 80 and vortexed for 30-60 seconds. For In situ implants, 50-100 μl of gel containing an equivalent amount of Cy5.5 was used. After dilation of the nipple orifice, 50-100 μl of the formulation was injected intraductally into the inguinal mammary glands using 27-31 G needle under a surgical microscope.
The animals were imaged using Bruker in Vivo Xtreme II optical imaging system at predetermined time points (0 to 96 hours) to study the distribution of the carrier system in the breast. Following instrument settings were used: Excitation/Emission: 690/750 nm; Bin: 1×1 pixels; Exposure time: 20 seconds, f-stop: 1.2, FOV: 19. Fluorescence intensities were plotted against time by choosing a constant ROI around the injected mammary gland and subtracting the fluorescence intensity from the contralateral mammary gland.

[2] = Imaging of regional (axillary) lymph nodes after intraductal injection; assay type: in vivo, female Sprague Dawley rats
Protocol: Intraductal injection was performed following the method described in the previous section. Regional lymph nodes (Axillary lymph node) were identified and dissected at 2 hours, 24 hours and 48 hours after intraductal injection. The lymph nodes were then imaged using whole body animal imaging system to determine the localization of formulation in the lymph nodes.

[3] = Plasma levels of tamoxifen and metabolites after intraductal injection of tamoxifen formulations (LC-MS); assay type: in vivo
Protocol: (§1) For In vivo studies, the levels of Tamoxifen and two major metabolites 4-hydroxytamoxifen (4HT) and endoxifen (EDX) were measured using LC-MS. (Liquid chromatography-Mass spectroscopy)
For determining drug levels in plasma, 100 μl of plasma was mixed with 400 μl of acetonitrile to precipitate proteins (1:4 v/v). This was then vortexed for 1-2 minutes followed by sonication for 3 minutes. The plasma was then centrifuged at 10,000 rpm at 4° C. for 10 minutes. The supernatant was collected and evaporated to dryness under gentle stream of Argon. The residue was then reconstituted with 100 μl of ammonium formate, (pH 3.5): acetonitrile (7:3 v/v). This was vortexed for 1 minute followed by sonication for 2 minutes. The reconstituted mixture was centrifuged at 10,000 rpm for 10 minutes at 4° C. The supernatant was collected and 15 μl was injected into LC-MS to determine drug levels.

[4] = Breast (mammary gland) concentration of tamoxifen and 4-hydroxytamoxifen after intraductal injection; assay type: in vivo
Protocol: as §1
(§2) The mammary gland and all the other vital organs (liver, spleen, kidney, lungs, heart, and uterus) were weighed and washed with PBS to remove blood. The tissues were mixed with TRIS HCl buffer (1 ml/mg) and homogenized at 6000 rpm for 3 minutes under ice. For lymph nodes, sonication (45% amplitude in pulse mode 1 sec on and 1 sec off for 2 minutes under ice) was used for homogenization. From this, 200 μl of tissue homogenate was mixed with 800 μl of acetonitrile (1:4 v/v) for protein precipitation. This was vortexed for 1-2 minutes followed by sonication for 3 minutes. The homogenate was centrifuged at 10,000 rpm at 4° C. for 10 minutes. The supernatant was collected and evaporated to dryness under gentle stream of Argon. The residue was reconstituted with 100 μl of ammonium formate (pH 3.5): acetonitrile (7:3 v/v). This was vortexed for 1 minute followed by sonication for 2 minutes. The reconstituted mixture was centrifuged at 10,000 rpm for 10 minutes at 4° C. The supernatant was gently removed and 15 μl was injected into LC-MS for quantification.

[5] = Organ distribution of tamoxifen PLGA formulations; assay type: in vivo; settings: end of the treatment
Protocol: as §1, §2

[6] = rat, in vivo
Protocol: (§3) For In vivo studies, the levels of 4-hydroxytamoxifen and endoxifen were measured using LC-MS.
(§4) The tissues were mixed with TRIS HCl buffer (1 ml/mg) and homogenized at 6000 rpm for 3 minutes under ice. For lymph nodes, sonication (45% amplitude in pulse mode 1 sec on and 1 sec off for 2 minutes under ice) was used to homogenize the tissue. From this, 200 μl of tissue homogenate was mixed with 800 μl of acetonitrile to precipitate proteins (1:4 v/v). This was then vortexed for 1-2 minutes followed by sonication for 3 minutes. The plasma was then centrifuged at 10,000 rpm at 4° C. for 10 minutes. The supernatant was collected and evaporated to dryness under gentle stream of Argon. The residue was then reconstituted with 100 μl of Ammonium Formate, pH 3.5: Acetonitrile (7:3 v/v). This was vortexed for 1 minute followed by sonication for 2 minutes. The reconstituted mixture was centrifuged at 10,000 rpm for 10 minutes at 4° C. The supernatant was collected and 15 μl was injected into LC-MS to determine drug levels.

[7] = set-up: species or system rats; settings: rat, in vivo
Protocol: as §3, §4

[8] = intraductal retention, Cy 5.5 fluorescence intensity profile, 0 to 96 hours
[9] = breast (mammary gland), tamoxifen in breast

no fluorescence signals recorded after ([1]; breast ducts, non-invasive imaging): 4 h
k [1, 8]: 0.40 ± 0.03 h⁻¹
t1/2 (retention half-life) [1, 8]: 1.70 ± 0.16 h
localization (fluorescence) in the axillary lymph nodes up to [2]: ≤ 1 h
Compound: Cy 5.5

Compound: CC/C(=C(\c1ccccc1)c1ccc(OCCN(C)C)cc1)c1ccccc1 [Free TMX, tamoxifen]
duration of detectable plasma tamoxifen [3]: 3 days
AUC ([3]; Tamoxifen in plasma): 116 ± 43.3 ng·h/mL
AUMC ([3]; Tamoxifen in plasma): 4546.37 ± 466.103 ng · hr^2/ml
Cmax ([3]; Tamoxifen in plasma): 8.9 ± 1.55 ng/mL
MRT ([3]; Tamoxifen in plasma): 47.7 ± 3.15 h
Tmax ([3]; Tamoxifen in plasma): 0.3 h
half-life ([3]; Tamoxifen in plasma): 19.5 ± 4.24 h
ke ([3]; Tamoxifen in plasma): 0.015 ± 0.002 h⁻¹
not retained in the mammary glands after [4]: 3 days
retained in the mammary gland for only [4]: 72 h
AUC [4, 9]: 125000 ± 3690 ng·h/mL
Cmax [4, 9]: 4370 ± 67.7 ng/mL
MRT [4, 9]: 26.5 ± 4.3 h
Tmax [4, 9]: 12 h
half-life [4, 9]: 14.87 ± 0.04 h
ke ([4]; tamoxifen in breast): 0.020 ± 0.0005
uterine exposure of tamoxifen and metabolites [5]: resulted in uterine exposure

retention in the mammary gland, in words [6]: very low levels
4 hydroxy tamoxifen in the tissues [7]: undetectable
systemic exposure of endoxifen in all the tissues [7]: higher systemic exposure
Compound: 4-hydroxytamoxifen [Free 4-hydroxy tamoxifen]
